Data on 2 compounds can be found in patent US20210379040A1, “COMBINATION TREATMENT OF LIVER DISORDERS” (Terns Pharmaceuticals, Inc., priority 2020, published 2021).

By Cmax is commonly meant the highest concentration seen after dosing. The term Tmax denotes the time at which the peak concentration occurs. Broadly, the AUC is the area under the concentration-time curve, a measure of exposure. The IC50 is the point on the concentration scale where inhibition reaches its midpoint.

Read-outs that look alike come from different tables or passages of the source.

One data set deals with mouse model of NASH. Nature of the data set: Mouse model of NASH (high fat diet + CCl4). The class given is in vivo, C57/BL6J mice.
Data set [1] in a line: PK/PD profile, 1 mg/kg oral for 7 consecutive days. The class given is in vivo. The note with it: cynomolgus monkeys; for Cmax / Tmax / AUC(0-t): cynomolgus monkey, plasma, po, 1 mg/kg, oral 1 mg/kg daily; for AUC(0-t): read-out: AUC0-24.
Data set [2] is described as follows: Clinical study, Second Study (7 days daily oral dosing). The note with it: for AUC: human, in vivo, po.
Data set [3] can be described thus: Pharmacokinetics assay, dog. The class given is in vivo, beagle dogs. To be noted: plasma, iv, Beagle Dog, intravenously 1 mg/kg. The text has this:
Results are shown in FIG. 1A (IV administration) and FIG. 1B (oral administration), and in Table 2. […] Smaller Vdss in monkeys is correlated with higher plasma protein binding.

Data set [4] in a line: Tissue distribution after 2 mg/kg intravenous infusion. The class given is in vivo. To be noted: SD rats, with 100 μM rifampin. On the procedure: The tested compounds were administered to SD rats (n=3 per compound) by way of 30 minute intravenous infusion at 2 mg/kg. Blood, liver, kidney, and lung tissue samples were collected from the rats to determine a tissue/plasma ratio.

For data set [5], the system named is FXR-regulated gene expression in human HuH7 hepatoma cells. Briefly: cells. The note with it: Huh-7, 11 h.
Protocol: EC50 values for FXR-regulated gene expression were determined using a cell-based RNA assay.
The next data set concerns the target T1, MAO-B (Homo sapiens, UniProt P27338).
T1 sequence (P27338 1-520): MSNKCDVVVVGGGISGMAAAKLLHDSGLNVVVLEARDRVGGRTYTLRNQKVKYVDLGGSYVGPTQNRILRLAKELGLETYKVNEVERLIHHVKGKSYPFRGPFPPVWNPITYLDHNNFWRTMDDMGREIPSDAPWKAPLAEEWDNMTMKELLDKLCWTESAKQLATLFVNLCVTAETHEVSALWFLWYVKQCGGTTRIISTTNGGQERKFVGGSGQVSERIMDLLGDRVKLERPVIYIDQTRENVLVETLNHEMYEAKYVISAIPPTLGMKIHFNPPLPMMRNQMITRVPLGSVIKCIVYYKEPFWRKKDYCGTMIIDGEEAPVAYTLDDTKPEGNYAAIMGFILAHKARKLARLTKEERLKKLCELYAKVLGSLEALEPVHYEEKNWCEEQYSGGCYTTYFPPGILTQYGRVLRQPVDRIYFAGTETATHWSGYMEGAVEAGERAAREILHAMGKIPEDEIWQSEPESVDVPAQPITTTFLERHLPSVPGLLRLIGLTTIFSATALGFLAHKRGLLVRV
Briefly: Biochemical activity, MAO-B.

Data set [6] can be described thus: Multiple once daily dose study: plasma PK and safety. The class given is in vivo, human. On the procedure: 3 groups of 8 healthy participants were randomized to receive multiple once daily (QD) doses of Compound 2 or matching placebo in a 3:1 ratio for 7 days (1 mg and 4 mg) or 14 days (10 mg). Plasma levels of Compound 2 and PD biomarkers (plasma amine oxidase activity and methylamine levels) were determined at pre-dose and various timepoints post-dose. Safety was assessed for up to 14 days after last dose.

Where [7] appears, read: NASH mice, 10, 30, 100 mg/kg, vs untreated NASH mice.

Protocol for mouse model of NASH: Hematoxylin & Eosin (H&E) and Sirius Red histological staining of liver tissue was used to quantitate NAFLD activity score (NAS), steatosis, ballooning, inflammation and fibrosis. […] Gene expression of RNA was analyzed by RT-qPCR and RNAseq.
NAS is calculated based upon liver steatosis, inflammation, and ballooning and was determined by analysis of liver tissue histology using H&E stain. […] Hepatocellular ballooning is a form of liver cell injury associated with cell swelling and is also measured by H&E stained liver sections. The ballooning score is calculated as follows: 0-no hepatocyte ballooning; 1-few ballooning hepatocytes; 2-many hepatocytes with prominent ballooning.
Liver fibrosis was quantified by histological analysis of the percentage of Sirius Red-positive liver sections. […] Liver triglycerides were measured from liver tissue using a biochemical analyzer (Hitachi-700).

As to `Cn1cc(C(=O)O)c2ccc(N3CCC(OCc4c(-c5c(Cl)cccc5Cl)noc4C4CC4)CC3)cc21` [Compound 1], the “CYP7A1 expression (CPM) Relative to Vehicle” value with mouse model of NASH (NASH mice liver, 30 mg/kg) came out at 0.02. Further, the “CYP8B1 expression (CPM) Relative to Vehicle” value in the data set with mouse model of NASH (NASH mice liver, 30 mg/kg) is given as 0.007. The liver triglycerides result in the data set on mouse model of NASH (NASH mice, 100 mg/kg) is “statistically significant reduced triglyceride levels”. Also, the serum triglyceride concentration entry in the data set with mouse model of NASH (NASH mice, 100 mg/kg) was “statically significant reduction”. For the same compound, the “serum ALT level” value with mouse model of NASH (NASH mice, 10, 30, 100 mg/kg) is recorded as “reduced”. Besides, the “serum AST level” value in the data set with mouse model of NASH (NASH mice, 10, 30, 100 mg/kg) was “reduced”. The “ballooning (score)” value with mouse model of NASH (setting [7]) is recorded as “significantly reduced”. Besides, in the data set with mouse model of NASH (setting [7]), the “inflammation (score)” value is “significantly reduced”. Further, in the data set on mouse model of NASH (setting [7]), the “steatosis (score)” value is recorded as “significantly reduced”. Besides, the “serum total cholesterol level” value with mouse model of NASH (NASH mice, 10, 30, and 100 mg/kg) is given as “statistically significant reduction”. The “NAFLD Activity Score (NAS)” value in the data set with mouse model of NASH (NASH mice, 10, 30, or 100 mg/kg daily oral, 28 days, vs untreated NASH mice) is “significantly lower NAS score”. Also, the “collagen, type 1, alpha 1 expression in the liver” value with mouse model of NASH (NASH mice, 10, 30, or 100 mg/kg, vs control NASH mice) was “decreased”. The “Liver fibrosis (Sirius Red-positive area)” value in the data set with mouse model of NASH (NASH mice, 10, 30 or 100 mg/kg, vs untreated NASH control) is listed as “statistically significant reduced fibrosis”. Moreover, the values for the Cmax in data set [1] (Day 1) and in data set [1] (Day 7) were 257 ± 124 ng/mL and 221 ± 121 ng/mL, respectively. The Tmax in data set [1] (Day 1) came out at 1.83 ± 1.17 h; in data set [1] (Day 7) it was 1.25 ± 0.61 h. The AUC(0-t) in data set [1] (Day 1) came to 1000 ± 419 ng·h/mL; in data set [1] (Day 7) it was 858 ± 425 ng·h/mL. Further, in data set [1] (1 mg/kg oral, 7 consecutive days), the “suppression of the pharmacodynamics biomarker 7AC4” value was “sustained suppression”. In addition, the Pruritus result in data set [2] (Compound 1 25 mg oral daily for 7 days) is recorded as “No”; in data set [2] (Compound 1 75 mg oral daily for 7 days) it was “No”; in data set [2] (Compound 1 150 mg oral daily for 7 days), “No”; in data set [2] (subjects taking the highest doses) it was “no pruritus was observed”. For the same compound, the AUC in data set [2] (25 mg) is 645 ng·h/mL; in data set [2] (75 mg), 1480 ng·h/mL; in data set [2] (150 mg) it was 2160 ng·h/mL. In addition, the half-life in data set [3] (read-out: IV Terminal t1/2 (converted)) was 5.67 h. Further, in data set [3] (read-out: Vdss), the Vd was 1.92 L/kg. Further, the “change in distribution to the liver on co-administration with rifampin” value in data set [4] is “does not result in a significant change”. In addition, the EC50 in data set [5] (read-out: EC50, BSEP Gene induction/HuH7) was determined as 40 nM; in data set [5] (read-out: EC50, FGF-19 Gene Induction/HuH7), 40 nM; in data set [5] (read-out: EC50, SHP Gene induction/HuH7), 50 nM.

For the compound `COC1CCN(c2ncc(OC/C(=C/F)CN)cn2)CC1` [Compound 2], the concentration for half-maximal inhibition (IC50) at MAO-B was more than 50000 nM. Further, in data set [6] (Day 1, QD 1, 4, 10 mg), the “plasma PK exposure increases between dose groups” value was “greater than dose proportional”. Besides, the half-life versus dose entry in data set [6] (QD 1, 4, 10 mg) was “increased with dose”. Further, the “accumulation after multiple QD doses” value in data set [6] (each dose level) is reported as “significant accumulation”. Further, the “adverse events or laboratory abnormalities” value in data set [6] (healthy participants, QD 1 mg and 4 mg for 7 days or 10 mg for 14 days) is reported as “No clinically relevant adverse events or laboratory abnormalities were reported”. In addition, the “time to steady state” value in data set [6] (highest dose cohort (10 mg QD)) is 7 days. Moreover, the safety and tolerability result in data set [6] (up to 10 mg QD for 14 days) was “safe and well tolerated”.
